Measurements reported in publication PMC12405493, “Selective ubiquitination of drug-like small molecules by the ubiquitin ligase HUWE1” (Nature Communications, 2025).

Legend:
HUWE1^FL = target: T1, HUWE1^FL (Homo sapiens, UniProt Q7Z6Z7); assay: HUWE1^FL multi-turnover ubiquitination reactions without protein substrate (autoubiquitination, free Ub chains); format: biochemical; conditions: without protein substrate; varying concentrations
T1 construct: made in house; host or cells: HEK293T (transient transfection, anti-Flag purification, SEC)
T1 sequence (Q7Z6Z7 whole entry): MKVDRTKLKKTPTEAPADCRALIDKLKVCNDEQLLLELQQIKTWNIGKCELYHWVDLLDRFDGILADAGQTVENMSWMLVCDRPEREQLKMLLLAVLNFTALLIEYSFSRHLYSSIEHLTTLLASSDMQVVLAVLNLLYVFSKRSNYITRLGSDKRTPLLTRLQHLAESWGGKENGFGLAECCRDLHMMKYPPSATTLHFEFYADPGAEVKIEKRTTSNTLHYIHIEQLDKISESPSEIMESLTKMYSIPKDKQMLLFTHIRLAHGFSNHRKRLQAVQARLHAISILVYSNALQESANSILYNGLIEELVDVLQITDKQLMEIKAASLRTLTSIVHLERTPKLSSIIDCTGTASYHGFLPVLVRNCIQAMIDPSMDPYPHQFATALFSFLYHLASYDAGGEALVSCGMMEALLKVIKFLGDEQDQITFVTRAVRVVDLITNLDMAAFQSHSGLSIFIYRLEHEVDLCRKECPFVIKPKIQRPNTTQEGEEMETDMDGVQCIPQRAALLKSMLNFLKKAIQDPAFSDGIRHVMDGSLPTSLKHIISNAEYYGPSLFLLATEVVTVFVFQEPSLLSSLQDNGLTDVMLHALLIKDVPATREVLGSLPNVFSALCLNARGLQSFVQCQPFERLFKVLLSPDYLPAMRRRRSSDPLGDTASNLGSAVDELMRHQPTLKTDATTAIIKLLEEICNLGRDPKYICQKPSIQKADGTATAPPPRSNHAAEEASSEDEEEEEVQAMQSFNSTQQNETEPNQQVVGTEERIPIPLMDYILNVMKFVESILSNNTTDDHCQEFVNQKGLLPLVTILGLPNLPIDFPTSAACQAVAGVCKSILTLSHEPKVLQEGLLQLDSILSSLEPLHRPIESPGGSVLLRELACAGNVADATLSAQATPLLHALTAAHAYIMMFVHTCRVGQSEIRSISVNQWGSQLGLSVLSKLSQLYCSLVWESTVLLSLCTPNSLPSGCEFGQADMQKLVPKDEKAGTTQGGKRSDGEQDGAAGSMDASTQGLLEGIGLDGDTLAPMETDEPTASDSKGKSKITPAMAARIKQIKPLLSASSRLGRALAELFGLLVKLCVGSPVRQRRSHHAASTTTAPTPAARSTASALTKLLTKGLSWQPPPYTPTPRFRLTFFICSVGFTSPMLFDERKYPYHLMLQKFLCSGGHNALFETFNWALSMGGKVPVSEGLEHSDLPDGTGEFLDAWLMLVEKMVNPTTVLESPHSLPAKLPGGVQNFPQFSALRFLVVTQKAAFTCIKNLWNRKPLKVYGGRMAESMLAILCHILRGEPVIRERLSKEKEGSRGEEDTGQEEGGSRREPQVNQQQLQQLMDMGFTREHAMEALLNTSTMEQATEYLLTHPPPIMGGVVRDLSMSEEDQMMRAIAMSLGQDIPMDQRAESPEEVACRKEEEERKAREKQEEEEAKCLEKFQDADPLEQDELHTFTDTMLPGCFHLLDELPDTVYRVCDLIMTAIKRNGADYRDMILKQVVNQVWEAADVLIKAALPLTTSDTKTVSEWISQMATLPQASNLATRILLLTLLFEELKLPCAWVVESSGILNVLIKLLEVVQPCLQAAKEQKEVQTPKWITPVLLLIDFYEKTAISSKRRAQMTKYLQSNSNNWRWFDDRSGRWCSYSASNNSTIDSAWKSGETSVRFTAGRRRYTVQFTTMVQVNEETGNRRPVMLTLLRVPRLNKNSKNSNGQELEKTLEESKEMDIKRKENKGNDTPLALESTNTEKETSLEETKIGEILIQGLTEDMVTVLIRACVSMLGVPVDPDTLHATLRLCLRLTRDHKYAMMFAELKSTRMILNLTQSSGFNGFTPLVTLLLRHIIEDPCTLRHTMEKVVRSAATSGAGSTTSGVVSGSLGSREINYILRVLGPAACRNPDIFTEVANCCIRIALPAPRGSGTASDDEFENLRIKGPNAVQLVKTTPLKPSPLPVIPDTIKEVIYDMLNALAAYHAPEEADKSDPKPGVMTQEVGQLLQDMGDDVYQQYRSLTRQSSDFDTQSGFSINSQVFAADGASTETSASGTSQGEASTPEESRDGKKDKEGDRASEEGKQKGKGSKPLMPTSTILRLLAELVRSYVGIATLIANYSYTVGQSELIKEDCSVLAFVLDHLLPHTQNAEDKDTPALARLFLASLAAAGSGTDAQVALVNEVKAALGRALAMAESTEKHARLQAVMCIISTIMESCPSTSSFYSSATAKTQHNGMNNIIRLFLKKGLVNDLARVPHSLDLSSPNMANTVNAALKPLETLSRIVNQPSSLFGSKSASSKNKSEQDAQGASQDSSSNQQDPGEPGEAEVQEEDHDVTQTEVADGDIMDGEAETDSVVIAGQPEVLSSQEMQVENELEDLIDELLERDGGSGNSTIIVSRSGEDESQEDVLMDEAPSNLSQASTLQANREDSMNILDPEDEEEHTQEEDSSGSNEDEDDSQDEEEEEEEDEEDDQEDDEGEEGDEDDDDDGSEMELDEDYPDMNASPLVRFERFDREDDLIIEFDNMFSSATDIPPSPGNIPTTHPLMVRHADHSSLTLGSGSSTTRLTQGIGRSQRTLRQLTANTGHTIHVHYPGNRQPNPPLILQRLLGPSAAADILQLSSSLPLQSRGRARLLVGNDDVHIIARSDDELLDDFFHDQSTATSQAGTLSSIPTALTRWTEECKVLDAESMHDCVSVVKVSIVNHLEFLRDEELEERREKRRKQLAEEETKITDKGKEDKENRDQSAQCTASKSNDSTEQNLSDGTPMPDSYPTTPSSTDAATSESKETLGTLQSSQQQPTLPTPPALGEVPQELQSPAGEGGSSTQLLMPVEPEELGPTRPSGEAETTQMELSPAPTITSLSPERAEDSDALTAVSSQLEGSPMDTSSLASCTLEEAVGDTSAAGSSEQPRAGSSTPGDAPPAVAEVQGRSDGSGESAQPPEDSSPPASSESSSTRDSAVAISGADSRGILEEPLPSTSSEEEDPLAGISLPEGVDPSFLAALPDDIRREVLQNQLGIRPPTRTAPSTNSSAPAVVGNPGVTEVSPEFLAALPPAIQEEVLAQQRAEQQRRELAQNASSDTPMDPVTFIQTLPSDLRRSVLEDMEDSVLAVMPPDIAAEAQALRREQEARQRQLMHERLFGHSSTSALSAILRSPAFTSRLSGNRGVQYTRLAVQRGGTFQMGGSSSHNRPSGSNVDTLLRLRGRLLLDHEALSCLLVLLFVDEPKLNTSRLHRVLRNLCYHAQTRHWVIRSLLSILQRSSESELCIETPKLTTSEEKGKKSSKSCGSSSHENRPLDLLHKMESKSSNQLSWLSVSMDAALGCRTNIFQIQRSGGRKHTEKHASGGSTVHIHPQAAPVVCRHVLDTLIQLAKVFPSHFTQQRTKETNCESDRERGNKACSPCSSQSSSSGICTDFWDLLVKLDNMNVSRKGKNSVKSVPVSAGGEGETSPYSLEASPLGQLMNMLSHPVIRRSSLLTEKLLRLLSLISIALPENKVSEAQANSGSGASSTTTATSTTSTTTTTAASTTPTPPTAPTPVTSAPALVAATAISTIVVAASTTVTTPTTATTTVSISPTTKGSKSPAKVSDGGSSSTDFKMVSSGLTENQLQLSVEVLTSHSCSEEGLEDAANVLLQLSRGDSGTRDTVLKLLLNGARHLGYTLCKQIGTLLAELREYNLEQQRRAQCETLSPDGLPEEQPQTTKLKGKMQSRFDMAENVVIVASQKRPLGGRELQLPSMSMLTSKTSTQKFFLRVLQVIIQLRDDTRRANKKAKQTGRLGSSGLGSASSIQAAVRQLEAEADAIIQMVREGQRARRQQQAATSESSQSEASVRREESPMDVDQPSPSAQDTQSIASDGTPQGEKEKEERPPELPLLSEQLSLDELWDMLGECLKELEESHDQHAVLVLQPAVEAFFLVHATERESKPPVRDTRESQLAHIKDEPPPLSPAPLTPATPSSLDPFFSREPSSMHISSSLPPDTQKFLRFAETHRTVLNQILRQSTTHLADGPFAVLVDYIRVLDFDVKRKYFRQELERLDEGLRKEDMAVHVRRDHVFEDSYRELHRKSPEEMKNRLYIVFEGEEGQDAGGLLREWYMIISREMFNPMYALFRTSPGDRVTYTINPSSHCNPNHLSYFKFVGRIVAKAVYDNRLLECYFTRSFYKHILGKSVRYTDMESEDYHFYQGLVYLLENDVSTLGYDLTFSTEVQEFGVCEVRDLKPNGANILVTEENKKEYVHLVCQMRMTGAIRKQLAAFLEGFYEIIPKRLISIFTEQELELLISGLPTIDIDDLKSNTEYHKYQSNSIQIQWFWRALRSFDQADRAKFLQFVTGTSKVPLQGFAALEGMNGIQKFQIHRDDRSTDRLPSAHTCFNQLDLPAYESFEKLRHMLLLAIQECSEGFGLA
Description: HUWE1^HECT multi-turnover ubiquitination reactions were performed for 30 minutes (unless stated otherwise) with 200 nM UBA1, 5 μM UBE2L3 or UBE2D3 (as specified), 1 μM HUWE1^HECT and 30 μM Ub in 25 mM HEPES (pH 7.5), 100 mM NaCl, 3 mM MgCl2, and 0.5 mM TCEP. HUWE1^FL multi-turnover ubiquitination reactions included 50 nM UBA1, 2.5 μM UBE2L3, 0.05 μM HUWE1^FL, 0.5 μM MCL1 (or 0.5 μM H2B or 1 μM FOXP3) and 20 μM Ub in 20 mM HEPES (pH 7.5), 100 mM NaCl, 3 mM MgCl2, and 0.5 mM TCEP. All multi-turnover reactions were started by the addition of 1 mM ATP, incubated at 30 °C, quenched with SDS-loading dye. If not stated otherwise, HUWE1^FLautoubiquitination reactions were incubated for 20 minutes. Substrate ubiquitination reactions with MCL1 or H2B were incubated for 10 and 20 min, respectively; those with FOXP3 for 30 min. Those reactions that were monitored by fluorescence contained a fluorescent Ub tracer (IRDye 800CW maleimide; LI-COR)[55] and were monitored using an Odyssey CLx scanner (LI-COR), followed by Coomassie staining. In the fluorescence images, only those marker bands are labeled (in kDa) that are visible by fluorescence; all marker bands are labeled in the Coomassie-stained images. Statistical analyses were performed with Prism 9 v.9.3.1 (GraphPad).

HUWE1^HECT = target: T2, HUWE1^HECT (Homo sapiens, UniProt Q7Z6Z7); assay: Single-turnover assay, Ub thioester transfer from E2 to HUWE1^HECT; format: biochemical; conditions: HECT^Δ4 variant
T2 construct: HUWE1^HECTΔ4 (residues 3993–4370); made in house
T2 sequence (Q7Z6Z7 3993-4370): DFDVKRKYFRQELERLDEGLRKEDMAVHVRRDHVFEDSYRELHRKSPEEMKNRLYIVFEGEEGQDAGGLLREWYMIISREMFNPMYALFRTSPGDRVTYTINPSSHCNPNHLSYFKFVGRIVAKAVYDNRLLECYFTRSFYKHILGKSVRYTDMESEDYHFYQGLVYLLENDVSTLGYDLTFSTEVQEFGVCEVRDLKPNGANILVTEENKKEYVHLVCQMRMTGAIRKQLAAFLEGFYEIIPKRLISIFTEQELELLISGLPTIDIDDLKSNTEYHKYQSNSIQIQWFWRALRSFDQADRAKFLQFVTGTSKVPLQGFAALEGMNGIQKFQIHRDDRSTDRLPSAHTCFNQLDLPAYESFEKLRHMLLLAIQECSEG
Description: E3-free multi-turnover ubiquitination reactions to monitor E1 and E2 activities contained 1 μM UBA1, 5 μM UBE2L3, 100 μM Ub, 2 mM ATP and 10 mM MgCl2 in 25 mM HEPES (pH 7.4), and 0.2 mM TCEP. Reactions were incubated at 30 °C for 10 min (or otherwise, as specified) and quenched with 50 mM EDTA, followed by the addition of SDS-loading dye. Single-turnover E2~Ub discharge assays were performed similarly to previous studies. In short, 1 μM UBA1, 5 μM UBE2L3, and 100 μM Ub were pre-incubated with 2 mM ATP and 10 mM MgCl2 in 25 mM HEPES (pH 7.4) at 30 °C for 30 min, diluted 4-fold, and quenched with 50 mM EDTA. Thereafter, 1.2 μM of the UBE2L3~Ub product was incubated with 5 μM HUWE1^HECT at 30 °C for 1 min.

SMILES	Inhibition of HUWE1^FL protein ubiquitination activity (E3 autoubiquitination, free Ub chain formation) (HUWE1^FL)	Ub transfer from the E2 to HUWE1^HECT (HUWE1^HECT)
Cc1c(C(=O)Nc2ccc(CN)cc2)ncnc1N1CCC(C#N)(c2ccccc2)CC1 [BI8622]	inhibit the protein ubiquitination activity of the ligase in a dose-dependent manner	do not obstruct Ub transfer from the E2 to HUWE1^HECT
NCc1cccc(CNc2ncnc3c(N4CCN(Cc5ccccc5)CC4)ncnc23)c1 [BI8626]	inhibit the protein ubiquitination activity of the ligase in a dose-dependent manner	do not obstruct Ub transfer from the E2 to HUWE1^HECT
